According to ChEMBL document CHEMBL1201862, “PubChem BioAssay data set” (2004):
Calls of active or inactive are those of the source.

Assays:
[1] = inhibitors of intracellular T. cruzi replication, confirmation, NIH3T3 host cells, beta-gal luminescence (AID 2044); format: functional, cell-based;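 further: intracellular parasites grown in NIH/3T3 mouse fibroblasts as host cells; luminescent beta-galactosidase reporter signal from transgenic T. cruzi replicating inside host cells; inhibitors lower the luminescence signal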
Fatty acid synthase [2] = biological target: T1, Fatty acid synthase (Homo sapiens, UniProt P49327); test: FAS thioesterase domain inhibitors, dose response, biochemical, kinetic fluorescence intensity (AID 624326); format: functional;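 further: rate of fluorescence rise from hydrolysis of a fluorogenic O-methyl fluorescein ester substrate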
T1 sequence (P49327 whole entry, the tested form may be a part): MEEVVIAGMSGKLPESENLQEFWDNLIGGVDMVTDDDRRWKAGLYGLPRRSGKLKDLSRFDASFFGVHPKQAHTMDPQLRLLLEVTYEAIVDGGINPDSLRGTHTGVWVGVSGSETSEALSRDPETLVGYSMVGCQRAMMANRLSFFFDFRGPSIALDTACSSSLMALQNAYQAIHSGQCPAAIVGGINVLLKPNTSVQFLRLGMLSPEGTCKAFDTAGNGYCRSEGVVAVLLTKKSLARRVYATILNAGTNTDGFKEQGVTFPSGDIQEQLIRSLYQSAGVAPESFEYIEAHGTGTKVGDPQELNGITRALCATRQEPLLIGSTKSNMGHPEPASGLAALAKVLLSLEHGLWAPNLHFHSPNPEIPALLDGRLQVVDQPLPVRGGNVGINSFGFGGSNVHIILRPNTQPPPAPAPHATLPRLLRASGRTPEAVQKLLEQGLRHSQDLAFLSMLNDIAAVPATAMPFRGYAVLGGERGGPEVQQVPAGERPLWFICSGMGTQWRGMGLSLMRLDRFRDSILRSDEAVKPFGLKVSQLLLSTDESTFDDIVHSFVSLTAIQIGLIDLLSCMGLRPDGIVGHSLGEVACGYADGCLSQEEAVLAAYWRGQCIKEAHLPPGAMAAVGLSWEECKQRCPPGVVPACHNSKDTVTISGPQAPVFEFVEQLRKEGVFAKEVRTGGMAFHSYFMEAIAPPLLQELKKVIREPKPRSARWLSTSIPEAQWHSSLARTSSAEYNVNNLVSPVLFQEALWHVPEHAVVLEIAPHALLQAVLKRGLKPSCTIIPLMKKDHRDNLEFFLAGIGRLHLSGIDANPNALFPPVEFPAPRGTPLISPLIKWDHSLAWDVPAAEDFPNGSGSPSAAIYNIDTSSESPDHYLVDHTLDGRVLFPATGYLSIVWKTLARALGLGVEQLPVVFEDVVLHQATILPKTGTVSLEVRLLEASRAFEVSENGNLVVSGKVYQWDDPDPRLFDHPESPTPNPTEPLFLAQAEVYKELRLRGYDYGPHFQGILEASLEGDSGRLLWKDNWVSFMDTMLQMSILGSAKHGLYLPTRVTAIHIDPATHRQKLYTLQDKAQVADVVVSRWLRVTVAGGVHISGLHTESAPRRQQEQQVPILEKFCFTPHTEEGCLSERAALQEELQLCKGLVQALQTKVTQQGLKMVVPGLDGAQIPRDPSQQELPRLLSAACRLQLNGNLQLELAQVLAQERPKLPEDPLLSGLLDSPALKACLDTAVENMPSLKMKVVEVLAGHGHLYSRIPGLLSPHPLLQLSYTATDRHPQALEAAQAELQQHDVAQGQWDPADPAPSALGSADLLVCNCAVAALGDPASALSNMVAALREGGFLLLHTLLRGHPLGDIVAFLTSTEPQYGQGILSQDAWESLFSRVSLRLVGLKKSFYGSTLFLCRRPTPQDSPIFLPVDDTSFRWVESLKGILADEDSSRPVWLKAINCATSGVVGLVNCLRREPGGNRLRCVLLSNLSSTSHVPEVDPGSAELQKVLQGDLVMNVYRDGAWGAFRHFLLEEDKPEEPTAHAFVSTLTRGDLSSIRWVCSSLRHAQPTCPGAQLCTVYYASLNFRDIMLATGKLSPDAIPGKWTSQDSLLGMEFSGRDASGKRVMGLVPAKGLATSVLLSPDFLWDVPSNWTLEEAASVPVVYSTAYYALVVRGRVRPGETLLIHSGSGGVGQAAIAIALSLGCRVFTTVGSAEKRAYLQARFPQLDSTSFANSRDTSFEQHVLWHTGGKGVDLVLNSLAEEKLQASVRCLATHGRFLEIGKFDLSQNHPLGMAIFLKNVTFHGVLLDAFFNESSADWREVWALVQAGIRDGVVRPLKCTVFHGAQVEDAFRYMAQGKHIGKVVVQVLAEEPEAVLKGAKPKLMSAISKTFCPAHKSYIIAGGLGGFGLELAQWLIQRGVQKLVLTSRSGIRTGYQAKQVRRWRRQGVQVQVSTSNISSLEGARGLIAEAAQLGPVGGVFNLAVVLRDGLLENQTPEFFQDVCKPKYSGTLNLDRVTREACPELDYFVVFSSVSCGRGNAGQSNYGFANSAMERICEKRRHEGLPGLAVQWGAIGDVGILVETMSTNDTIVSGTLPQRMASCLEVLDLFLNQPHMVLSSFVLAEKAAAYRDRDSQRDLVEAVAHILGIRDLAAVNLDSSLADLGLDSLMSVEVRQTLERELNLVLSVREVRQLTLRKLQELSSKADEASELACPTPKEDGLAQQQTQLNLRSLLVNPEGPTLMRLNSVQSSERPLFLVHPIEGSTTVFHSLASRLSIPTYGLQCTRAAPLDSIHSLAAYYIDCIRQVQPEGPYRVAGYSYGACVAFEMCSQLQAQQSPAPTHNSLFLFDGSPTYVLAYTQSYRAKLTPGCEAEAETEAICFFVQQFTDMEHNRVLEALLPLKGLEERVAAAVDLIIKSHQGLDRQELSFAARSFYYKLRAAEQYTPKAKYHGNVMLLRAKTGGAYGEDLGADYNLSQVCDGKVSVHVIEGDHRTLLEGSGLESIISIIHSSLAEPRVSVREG

Fatty acid synthase [3] = biological target: T1, Fatty acid synthase; test: FAS thioesterase domain inhibitors, dose response, biochemical, endpoint fluorescence intensity, uHTS hits (AID 624327); format: functional;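 further: fluorescence from hydrolysis of an O-methyl fluorescein acyl ester substrate by the enzyme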
Streptokinase A = biological target: T2, Streptokinase A (Streptococcus pyogenes serotype M1, UniProt P10520); test: S. pyogenes streptokinase expression inhibitors, potency, dose response, plasminogen activation absorbance, OD405 (AID 1914); format: functional, Streptococcus pyogenes M1 GAS;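 further: secreted streptokinase activity via plasminogen activation per viability signal from cell pellet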
T2 sequence (P10520 whole entry): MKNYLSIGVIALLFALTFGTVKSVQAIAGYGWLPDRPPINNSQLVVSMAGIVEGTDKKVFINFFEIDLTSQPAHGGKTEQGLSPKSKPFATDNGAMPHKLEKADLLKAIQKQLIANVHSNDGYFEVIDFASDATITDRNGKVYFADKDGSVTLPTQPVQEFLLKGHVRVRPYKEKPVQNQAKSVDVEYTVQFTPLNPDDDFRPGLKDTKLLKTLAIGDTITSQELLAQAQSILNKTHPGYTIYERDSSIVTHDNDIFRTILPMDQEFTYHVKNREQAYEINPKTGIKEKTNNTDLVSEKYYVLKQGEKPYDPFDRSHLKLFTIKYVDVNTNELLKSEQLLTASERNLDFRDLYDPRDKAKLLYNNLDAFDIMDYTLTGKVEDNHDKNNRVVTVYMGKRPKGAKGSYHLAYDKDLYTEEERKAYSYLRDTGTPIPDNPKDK

[4] = biological target: Photoreceptor-specific nuclear receptor (Homo sapiens, UniProt Q9Y5X4); format: functional, cell-based;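 further: CHO-S cells with Gal4-NCOR and VP16-NR2E3 two-hybrid luciferase reporter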
[5] = test system: Streptococcus sp. 'group A'; test: growth inhibition of control SK(-) GAS strain, dose response, counter-screen for streptokinase expression inhibitor project, luminescence, kanamycin, BacTiterGlo, confirmation (AID 1900); format: functional, organism-based
Streptococcus = test: Group A Streptococcus viability loss, dose response, counter-screen for streptokinase expression inhibitor project, luminescence, BacTiterGlo (AID 1915); format: functional, organism-based;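 further: potency for reduction of bacterial viability or growth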
[6] = cytotoxicity toward NIH3T3 fibroblasts, dose response, counter-screen, cell-based, ATP luminescence, mouse fibroblasts (AID 2010); format: functional;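 further: cells exposed to compound for about 90 hours before reading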
[7] = biological target: Low molecular weight phosphotyrosine protein phosphatase (Homo sapiens, UniProt P24666); format: functional; details: read-out: IC50_Mean;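 further: Dose-response confirmation assay measuring inhibition of LMPTP enzyme activity by fluorescence intensity read-out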
Low molecular weight phosphotyrosine protein phosphatase, sequence (P24666 whole entry): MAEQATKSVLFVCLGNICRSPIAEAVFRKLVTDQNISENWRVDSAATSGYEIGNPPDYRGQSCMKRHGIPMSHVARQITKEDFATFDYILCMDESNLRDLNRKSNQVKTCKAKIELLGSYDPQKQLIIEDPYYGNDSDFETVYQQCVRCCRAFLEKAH

[8] = biological target: Mitochondrial peptide methionine sulfoxide reductase (Bos taurus, UniProt P54149); format: functional;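 further: absorbance read-out, biochemical high-throughput dose-response screen for MsrA inhibitors, confirmatory; recombinant bovine MsrA coupled to E. coli TrxB with NADPH and selenocystamine; potency is for inhibitors of MsrA activity on DMSO substrate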
Mitochondrial peptide methionine sulfoxide reductase, sequence (P54149 whole entry): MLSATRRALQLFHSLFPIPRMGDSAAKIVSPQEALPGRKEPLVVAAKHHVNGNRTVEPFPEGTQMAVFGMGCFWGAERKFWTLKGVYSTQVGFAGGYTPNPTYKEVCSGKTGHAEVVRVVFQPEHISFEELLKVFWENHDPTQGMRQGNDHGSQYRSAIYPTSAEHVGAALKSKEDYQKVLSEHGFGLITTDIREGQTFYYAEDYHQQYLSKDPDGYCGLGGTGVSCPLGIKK

Insulin-degrading enzyme [9] = biological target: T3, Insulin-degrading enzyme (Homo sapiens, UniProt P14735); test: activators of endogenous IDE in HEK cells, dose response, cell-based, fluorescence polarization (AID 588439); format: functional
T3 sequence (P14735 whole entry): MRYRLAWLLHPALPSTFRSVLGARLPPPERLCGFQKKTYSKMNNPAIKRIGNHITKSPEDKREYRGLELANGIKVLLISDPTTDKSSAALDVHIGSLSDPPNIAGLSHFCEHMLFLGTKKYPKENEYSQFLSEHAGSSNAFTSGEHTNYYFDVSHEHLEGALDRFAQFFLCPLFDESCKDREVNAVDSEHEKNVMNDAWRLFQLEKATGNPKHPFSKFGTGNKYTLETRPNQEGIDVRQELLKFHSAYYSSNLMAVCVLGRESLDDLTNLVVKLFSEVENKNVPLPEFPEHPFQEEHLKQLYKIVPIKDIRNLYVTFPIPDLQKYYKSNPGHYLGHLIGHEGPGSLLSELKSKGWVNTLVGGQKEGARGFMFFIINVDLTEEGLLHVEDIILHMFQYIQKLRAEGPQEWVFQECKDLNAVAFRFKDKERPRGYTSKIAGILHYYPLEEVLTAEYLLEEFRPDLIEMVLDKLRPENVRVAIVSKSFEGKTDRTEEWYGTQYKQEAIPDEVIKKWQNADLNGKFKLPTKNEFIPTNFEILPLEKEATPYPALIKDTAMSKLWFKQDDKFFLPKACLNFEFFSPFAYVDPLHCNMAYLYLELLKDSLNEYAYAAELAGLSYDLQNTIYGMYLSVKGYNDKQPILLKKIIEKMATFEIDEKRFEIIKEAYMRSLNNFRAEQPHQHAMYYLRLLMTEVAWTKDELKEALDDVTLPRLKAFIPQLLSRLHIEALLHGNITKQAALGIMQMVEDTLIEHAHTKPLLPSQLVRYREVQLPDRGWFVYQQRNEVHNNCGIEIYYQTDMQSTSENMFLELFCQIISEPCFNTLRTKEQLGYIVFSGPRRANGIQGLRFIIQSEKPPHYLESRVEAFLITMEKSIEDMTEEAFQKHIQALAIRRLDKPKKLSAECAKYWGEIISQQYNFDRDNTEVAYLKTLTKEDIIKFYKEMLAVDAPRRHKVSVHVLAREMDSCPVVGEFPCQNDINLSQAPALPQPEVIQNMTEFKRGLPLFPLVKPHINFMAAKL

Insulin-degrading enzyme [10] = biological target: T3, Insulin-degrading enzyme; test: activators of recombinant IDE enzyme, dose response, counter-screen for IDE activator project, biochemical, fluorescence polarization (AID 588681)
[11] = biological target: T4, Ubiquitin-conjugating enzyme E2 N (Homo sapiens, UniProt P61088); format: functional
T4 sequence (P61088 whole entry): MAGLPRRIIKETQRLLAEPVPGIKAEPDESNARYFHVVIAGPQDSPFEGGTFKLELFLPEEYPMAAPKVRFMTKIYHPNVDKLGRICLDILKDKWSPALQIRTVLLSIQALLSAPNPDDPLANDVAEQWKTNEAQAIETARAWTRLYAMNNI

[12] = biological target: T4, Ubiquitin-conjugating enzyme E2 N; format: functional; remark: listed apart in the source
[13] = biological target: T5, Apoptotic protease-activating factor 1 (Homo sapiens, UniProt O14727); format: functional
T5 sequence (O14727 whole entry): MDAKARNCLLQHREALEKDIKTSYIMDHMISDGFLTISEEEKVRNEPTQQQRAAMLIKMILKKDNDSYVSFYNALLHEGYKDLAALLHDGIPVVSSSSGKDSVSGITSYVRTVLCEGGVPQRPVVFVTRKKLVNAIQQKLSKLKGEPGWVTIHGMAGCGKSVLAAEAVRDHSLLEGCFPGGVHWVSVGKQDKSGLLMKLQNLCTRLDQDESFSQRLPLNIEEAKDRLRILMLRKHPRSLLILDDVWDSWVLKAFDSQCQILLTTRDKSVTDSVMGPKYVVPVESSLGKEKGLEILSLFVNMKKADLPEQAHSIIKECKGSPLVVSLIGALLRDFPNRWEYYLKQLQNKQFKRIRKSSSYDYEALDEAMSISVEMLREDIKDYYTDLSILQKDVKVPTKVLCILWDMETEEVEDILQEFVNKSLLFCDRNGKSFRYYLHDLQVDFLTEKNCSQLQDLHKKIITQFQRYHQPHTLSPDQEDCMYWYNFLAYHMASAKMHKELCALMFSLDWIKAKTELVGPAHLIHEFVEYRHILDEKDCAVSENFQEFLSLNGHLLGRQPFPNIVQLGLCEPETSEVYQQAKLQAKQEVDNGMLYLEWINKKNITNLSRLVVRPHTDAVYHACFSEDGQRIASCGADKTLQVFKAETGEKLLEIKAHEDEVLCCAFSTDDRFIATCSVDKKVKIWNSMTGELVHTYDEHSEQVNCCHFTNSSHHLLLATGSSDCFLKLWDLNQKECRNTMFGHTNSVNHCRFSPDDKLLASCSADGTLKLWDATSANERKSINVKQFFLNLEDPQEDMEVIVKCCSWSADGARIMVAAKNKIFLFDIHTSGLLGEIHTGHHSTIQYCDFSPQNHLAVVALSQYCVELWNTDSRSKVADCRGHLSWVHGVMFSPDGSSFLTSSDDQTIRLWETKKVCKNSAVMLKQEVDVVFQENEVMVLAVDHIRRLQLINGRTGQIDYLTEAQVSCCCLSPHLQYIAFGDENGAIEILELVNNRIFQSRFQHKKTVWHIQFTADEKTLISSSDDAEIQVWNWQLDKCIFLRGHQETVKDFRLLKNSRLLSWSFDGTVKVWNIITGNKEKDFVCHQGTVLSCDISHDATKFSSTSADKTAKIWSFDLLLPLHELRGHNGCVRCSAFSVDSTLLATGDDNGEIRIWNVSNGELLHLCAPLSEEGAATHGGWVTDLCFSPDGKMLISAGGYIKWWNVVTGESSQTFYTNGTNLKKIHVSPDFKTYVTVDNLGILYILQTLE

Bcl-2-related protein A1 = biological target: T6, Bcl-2-related protein A1 (Mus musculus, UniProt Q07440); format: functional;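 further: confirmatory dose–response counterscreen on Bfl-1, used to check hits from a UBC13 polyubiquitin inhibitor campaign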
T6 sequence (Q07440 whole entry): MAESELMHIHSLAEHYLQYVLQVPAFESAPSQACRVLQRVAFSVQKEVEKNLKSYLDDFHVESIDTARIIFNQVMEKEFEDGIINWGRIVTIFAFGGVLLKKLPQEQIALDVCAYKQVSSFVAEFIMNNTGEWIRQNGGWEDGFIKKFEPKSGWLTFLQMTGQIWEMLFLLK

HEK293 [14] = test: optical interference in Abeta FP readout, dose response, artefact control for IDE activator project, biochemical, fluorescence polarization (AID 588442); format: functional, cell-based; details: Homo sapiens
HEK293 [15] = test: HEK cell cytotoxicity by LDH release, dose response, cytotoxicity control for IDE activator project, fluorescence, HEK cells (AID 588440); format: functional, cell-based; details: Homo sapiens;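 further: cytotoxicity by LDH release measuring loss of membrane integrity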
Melanocortin receptor 4 = Melanocortin receptor 4 (Homo sapiens, UniProt P32245); format: functional, cell-based;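 further: Cell-based assay with luminescence read-out, confirmatory dose-response testing for agonist activity of biased ligands at MC4R; human U2OS cells with tagged receptor and beta-arrestin; potency of agonists that increase receptor coupling to beta-arrestin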
H9c2 = test: cells; format: functional, cell-based; details: Rattus norvegicus, H9c2, Myocardium;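 further: confirmatory concentration-response retest of ultra-high-throughput screening hits for modulation of myocardial damage; cell death induced by hydrogen peroxide oxidative stress; compound pretreatment for 60 min then peroxide exposure for 2 h; potency is for protecting the cells against peroxide damage rather than for killing them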
[16] = growth suppression of beta-catenin-knockout colon cells, dose response, cell-based, HCT116, human colon tumor (AID 1045); format: functional;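 further: HCT116 colon tumor cells with beta catenin knocked out; cells exposed to compound for 60 hours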
INS1 = test: beta cell apoptosis inhibitors, cytokine rescue, dose response, luminescence, retest (AID 449756); format: functional, cell-based; details: Rattus norvegicus;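 further: cell death triggered by IL-1 beta plus TNF-alpha plus IFN-gamma mixture; protective hits raise ATP signal compared with cytokine alone wells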
[17] = growth suppression of PTEN-null colon cells, dose response, cell-based, HCT116 PTEN knockout (AID 1047); format: functional;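 further: HCT116 colon tumor cells with PTEN knocked out; cells exposed to compound for 60 hours before readout; potency for loss of cell viability measured by luminescence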
[18] = cytotoxicity in HEK-293T cells, dose response, cytotoxicity control for TCR NF-kB inhibitor project, luminescence, T-cell screen hits (AID 489026); format: functional, cell-based;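 further: cells exposed to compound about 14 hours before the viability readout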
[19] = Luminescence Cell-Based Dose Response HTS to Identify Inhibitors of 5'UTR Stem-Loop Driven Prion Protein mRNA Translation in H4 Neuroglioblastoma Cells. [Related pubchem assays: 1827 (Project Summary), 1813 (Primary HTS)]; format: functional
[20] = biological target: Neurotensin receptor type 1 (Homo sapiens, UniProt P30989); format: functional;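 further: Image-based confirmatory dose-response assay measuring agonist activity at NTR1; NTR1-expressing U2OS osteosarcoma cells imaged for beta-arrestin GFP spot formation; agonist potency where compounds increase beta-arrestin recruitment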
Neurotensin receptor type 1, sequence (P30989 whole entry): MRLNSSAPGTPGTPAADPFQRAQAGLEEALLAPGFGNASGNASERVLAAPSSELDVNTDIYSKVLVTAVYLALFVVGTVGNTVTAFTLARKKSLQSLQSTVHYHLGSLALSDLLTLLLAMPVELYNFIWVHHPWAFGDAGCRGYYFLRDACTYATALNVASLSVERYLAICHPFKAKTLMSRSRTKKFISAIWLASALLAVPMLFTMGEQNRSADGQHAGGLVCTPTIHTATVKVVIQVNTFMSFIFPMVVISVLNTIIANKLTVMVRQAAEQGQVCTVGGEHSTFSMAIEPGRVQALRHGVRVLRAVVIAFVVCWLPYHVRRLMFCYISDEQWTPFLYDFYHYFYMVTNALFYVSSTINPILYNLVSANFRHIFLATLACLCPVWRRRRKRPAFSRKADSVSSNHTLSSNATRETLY

[21] = inhibitors of SNCA 5'UTR-driven reporter translation, confirmation, H4 neuroglioma cells, luminescence (AID 1988); format: functional, cell-based
[22] = inhibitors of firefly luciferase expression or activity, dose response, H4 neuroglioma cells, luminescence (AID 1990); format: functional, cell-based
[23] = biological target: T7, Polyadenylate-binding protein 1 (Homo sapiens, UniProt P11940); test: PABP1 MLLE–PAM2 interaction inhibitors, dose response, miRNA deadenylation inhibitor project, biochemical, fluorescence polarization, Cy5-PAM2 peptide, secondary (AID 602260); format: functional; details: read-out: IC50_Mean
T7 sequence (P11940 whole entry): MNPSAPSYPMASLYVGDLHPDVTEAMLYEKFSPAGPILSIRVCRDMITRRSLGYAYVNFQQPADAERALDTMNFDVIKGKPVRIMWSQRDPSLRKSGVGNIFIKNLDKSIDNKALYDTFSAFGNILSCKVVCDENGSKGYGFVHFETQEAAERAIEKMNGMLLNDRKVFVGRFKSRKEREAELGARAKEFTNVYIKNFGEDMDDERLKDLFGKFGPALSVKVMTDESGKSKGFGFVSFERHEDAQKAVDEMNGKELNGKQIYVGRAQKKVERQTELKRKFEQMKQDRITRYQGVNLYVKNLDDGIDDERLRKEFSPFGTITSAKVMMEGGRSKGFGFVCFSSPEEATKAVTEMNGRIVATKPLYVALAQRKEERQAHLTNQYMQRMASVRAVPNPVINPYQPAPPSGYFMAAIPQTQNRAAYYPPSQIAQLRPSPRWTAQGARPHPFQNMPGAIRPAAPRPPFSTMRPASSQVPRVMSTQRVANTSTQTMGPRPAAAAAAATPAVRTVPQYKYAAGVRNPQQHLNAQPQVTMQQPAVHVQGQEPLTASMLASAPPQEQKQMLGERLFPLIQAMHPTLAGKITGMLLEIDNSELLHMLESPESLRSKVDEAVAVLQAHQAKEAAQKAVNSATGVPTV

[24] = biological target: T7, Polyadenylate-binding protein 1; test: PABP1 MLLE–PAM2 binding inhibitor potency, dose response, biochemical, fluorescence polarization, FITC-PAM2 peptide (AID 602259); format: functional; details: read-out: IC50_Mean
Lethal factor = Lethal factor (Bacillus anthracis, UniProt P15917); test: High-throughput multiplex microsphere dose response for inhibitors of toxin protease, specifically Lethal Factor protease, compounds from Cherry Pick 02.; format: functional; details: read-out: EC50_MICROM
Lethal factor, sequence (P15917 whole entry): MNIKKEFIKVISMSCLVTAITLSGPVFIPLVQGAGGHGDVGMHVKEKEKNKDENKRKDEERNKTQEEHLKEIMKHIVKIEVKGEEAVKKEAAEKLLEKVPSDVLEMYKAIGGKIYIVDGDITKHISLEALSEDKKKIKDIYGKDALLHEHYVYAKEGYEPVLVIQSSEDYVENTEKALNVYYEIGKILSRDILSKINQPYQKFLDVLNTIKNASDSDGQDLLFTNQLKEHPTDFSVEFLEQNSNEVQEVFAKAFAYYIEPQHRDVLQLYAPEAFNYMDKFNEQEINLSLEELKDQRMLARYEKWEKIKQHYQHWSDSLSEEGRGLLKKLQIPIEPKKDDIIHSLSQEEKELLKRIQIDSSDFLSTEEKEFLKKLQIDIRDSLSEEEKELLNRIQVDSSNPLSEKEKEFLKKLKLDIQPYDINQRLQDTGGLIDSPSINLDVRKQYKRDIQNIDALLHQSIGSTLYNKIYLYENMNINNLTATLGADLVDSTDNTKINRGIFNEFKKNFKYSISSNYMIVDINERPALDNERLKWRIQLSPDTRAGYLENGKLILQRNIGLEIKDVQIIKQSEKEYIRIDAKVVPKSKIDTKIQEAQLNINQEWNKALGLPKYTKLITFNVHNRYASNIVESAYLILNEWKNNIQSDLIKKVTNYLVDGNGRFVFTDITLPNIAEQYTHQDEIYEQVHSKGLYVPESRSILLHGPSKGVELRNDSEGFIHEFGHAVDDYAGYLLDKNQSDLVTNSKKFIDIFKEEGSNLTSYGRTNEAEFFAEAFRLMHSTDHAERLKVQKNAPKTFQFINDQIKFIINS

CCc1cccc2sc(N3CCN(C(=O)c4ccc([N+](=O)[O-])o4)CC3)nc12
EC50 [1]: 0.307 µM (active) | IC50 (Fatty acid synthase [2]): 12.9 µM (active) | IC50 (Fatty acid synthase [3]): 13.3 µM (active) | EC50 (Streptokinase A): 2.38 µM (active) | IC50 [4]: 4.71 µM (active) | EC50 [5]: 5.99 µM (active) | EC50 (Streptococcus): 12.1 µM (active) | EC50 [6]: 5.4 µM (active)

CCn1cc(C(=O)O)c(=O)c2cc(F)c(N3CCN(C(=S)NC(=O)c4cccc(F)c4)CC3)cc21
IC50 [7]: 8.61 µM (active)

CCCOc1ccc(C(=O)NC(=S)N2CCN(c3ncc4c(=O)c(C(=O)O)cn(CC)c4n3)CC2)cc1
IC50 [7]: 9.82 µM (active)

COc1cc(OC)c(OC)cc1/C=N/NC(=O)c1ccc(=O)n(C)c1
IC50 [8]: 102 µM (inactive)

C#CCOCCOCCOCCNc1nc(N2CCN(C(=O)CCCCCCCCCCNC(=O)[C@H]([C@@H](C)CC)n3cc(CCCCCN)nn3)CC2)nc(N2CCN(C(=O)CCCCCCCCCCNC(=O)[C@H](CO)n3cc(CCCCCN)nn3)CC2)n1
EC50 (Insulin-degrading enzyme [9]): > 6.08 µM (active) | EC50 (Insulin-degrading enzyme [10]): 9.67 µM (active) | IC50 [11]: 2.64 µM (active) | IC50 [12]: 4.22 µM (active) | IC50 [13]: 25 µM (active) | IC50 (Bcl-2-related protein A1): > 20 µM (inactive) | EC50 (HEK293 [14]): > 56 µM (inactive) | IC50 (HEK293 [15]): 9.37 µM (active)

CC(=O)Nc1ccc(-c2csc(NC(=O)Nc3ccccc3)n2)cc1
EC50 (Melanocortin receptor 4): > 89.2 µM (inactive) | IC50 (H9c2): 38.3 µM (inactive)

COc1ccc(Cn2c(SCc3ccc(C)cc3)nc3cc(OC)c(OC)cc3c2=N)cc1Cl
EC50 (Insulin-degrading enzyme [9]): 15.5 µM (inactive) | EC50 [16]: 3.32 µM (active) | EC50 (Insulin-degrading enzyme [10]): > 54.7 µM (inactive) | AC50 (INS1): 3.85 µM (active) | EC50 (Streptokinase A): 5.92 µM (active) | EC50 [5]: 2.52 µM (active) | EC50 [17]: 3.54 µM (active) | EC50 (HEK293 [14]): > 54.7 µM (inactive) | IC50 [18]: > 80 µM (inactive) | EC50 [19]: > 120 µM (not active) | EC50 [20]: 5.35 µM (active) | EC50 (Streptococcus): 8.22 µM (active) | EC50 [21]: > 120 µM (not active) | EC50 [22]: > 120 µM (not active) | IC50 (HEK293 [15]): 15.9 µM (inactive)

CCOC(=O)C(C)Sc1nnc(Cc2cc(O)nc(O)n2)n1-c1ccc(Cl)cc1 (stereo unspecified)
IC50 [23]: > 66 µM (inactive) | IC50 [24]: > 66 µM (inactive)

Nc1nnc2cc(Br)ccc2n1
IC50 [23]: > 66 µM (inactive) | IC50 [24]: 35.7 µM (inactive)

Cn1ccc2c(-c3ccc(F)nc3)cc3c(c21)C1CCC3C1 (stereo unspecified)
EC50 (Lethal factor): 10.6 µM (active)
